Assay results from the NIST ThermoML archive (doi:10.1016/j.jct.2018.12.039).
± gives the expanded uncertainty stated by the source.

How the values were obtained:
[1] = 100 kPa, Liquid; for speed of sound: Frequency=2 MHz, Linear variable-path acoustic interferometer; for mass density: Vibrating tube method
[2] = xn = mol fraction of the nth substance listed; details: 100 kPa, Liquid, x1 = 1; for speed of sound: Frequency=2 MHz, Linear variable-path acoustic interferometer; for mass density: Vibrating tube method

Row | SMILES | speed of sound ([1]; 303.15 K) [m/s] | mass density ([1]; 303.15 K) [kg/m3] | mass density ([1]; 308.15 K) [kg/m3] | speed of sound ([1]; 313.15 K) [m/s] | mass density ([1]; 313.15 K) [kg/m3] | mass density ([1]; 318.15 K) [kg/m3] | speed of sound ([2]; 303.15 K) [m/s] | mass density ([2]; 303.15 K) [kg/m3] | mass density ([2]; 308.15 K) [kg/m3] | speed of sound ([2]; 313.15 K) [m/s] | mass density ([2]; 313.15 K) [kg/m3] | mass density ([2]; 318.15 K) [kg/m3]
1 | Cc1ccccc1O [2-methylphenol] | 1488.1 ± 2.5 | 1037.02 ± 1.2 | 1032.58 ± 1.2 | 1453 ± 2.5 | 1028.19 ± 1.2 | 1023.82 ± 1.2 | – | – | – | – | – | –
2 | Cc1cccc(O)c1 [3-methylphenol] | 1466.1 ± 2.5 | 1025.71 ± 1.2 | 1021.7 ± 1.2 | 1436.1 ± 2.5 | 1017.69 ± 1.2 | 1013.65 ± 1.2 | – | – | – | – | – | –
3 | Cc1ccc(O)cc1 [4-methylphenol] | 1473 ± 2.5 | 1026.47 ± 1.2 | 1022.56 ± 1.2 | 1440.2 ± 2.5 | 1018.64 ± 1.2 | 1014.68 ± 1.2 | – | – | – | – | – | –
4 | CCO [ethanol] | 1127 ± 2.4 | 781.08 ± 1.2 | 776.59 ± 1.2 | 1094 ± 2.4 | 772.23 ± 1.2 | 767.61 ± 1.2 | – | – | – | – | – | –
5 | CCO [ethanol] + Cc1ccc(O)cc1 | – | – | – | – | – | – | 1127 ± 2.4 | 781.08 ± 1.2 | 776.59 ± 1.2 | 1094 ± 2.4 | 772.23 ± 1.2 | 767.61 ± 1.2
6 | CCO [ethanol] + Cc1cccc(O)c1 | – | – | – | – | – | – | 1127 ± 2.4 | 781.08 ± 1.2 | 776.59 ± 1.2 | 1094 ± 2.4 | 772.23 ± 1.2 | 767.61 ± 1.2
7 | CCO [ethanol] + Cc1ccccc1O | – | – | – | – | – | – | 1127 ± 2.4 | 781.08 ± 1.2 | 776.59 ± 1.2 | 1094 ± 2.4 | 772.23 ± 1.2 | 767.61 ± 1.2
